Laboratory results published in patent publication US20160242416A1, “FUNGICIDAL ISOXAZOLINE CARBINOLS” (E I DU PONT DE NEMOURS AND COMPANY, priority 2015, published 2016).

Assays:
Zymoseptoria tritici = assay: Test E: wheat leaf blotch, preventive spray on wheat seedlings; conditions: 100 = 100% disease control; for Test E rating (% disease control): 10 ppm, wheat leaf blotch, 0 = no control
Stagonospora nodorum = assay: Test D: wheat glume blotch, preventive spray on wheat seedlings; conditions: 100 = 100% disease control; for Test D rating (% disease control): 10 ppm, wheat glume blotch, 0 = no control
[1] = system: Puccinia recondita f sp. tritici; assay: Test F: wheat leaf rust, preventive spray on wheat seedlings; conditions: 100 = 100% disease control; for Test F rating (% disease control): 10 ppm, wheat leaf rust, 0 = no control
Botrytis cinerea = assay: Test B: gray mold, preventive spray on tomato seedlings; conditions: 100 = 100% disease control; for Test B rating (% disease control): 10 ppm, gray mold on tomato, 0 = no control
[2] = system: Erysiphe graminis f sp. tritici; assay: Test G: wheat powdery mildew, preventive spray on wheat seedlings; conditions: 100 = 100% disease control; for Test G rating (% disease control): 10 ppm, wheat powdery mildew, 0 = no control
From the text: General protocol for preparing test solutions for Tests A-G: the test compounds were first dissolved in acetone in an amount equal to 3% of the final volume and then suspended at the desired concentration (in ppm) in acetone and purified water (50/50 mix by volume) containing 250 ppm of the surfactant PEG400 (polyhydric alcohol esters). The resulting test suspensions were then used in Tests A-G. Compounds were sprayed at a concentration of 50 ppm (*) or 10 ppm to the point of run-off on the test plants, the equivalent of a rate of 200 g/ha or 40 g/ha, respectively.
The test solution was sprayed to the point of run-off on wheat seedlings. The following day the seedlings were inoculated with a spore dust of Erysiphe graminis f sp. tritici, (the causal agent of wheat powdery mildew) and incubated in a growth chamber at 20° C. for 8 days, after which time visual disease ratings were made.
Compounds with an asterisks (*) were applied at a concentration of 50 ppm, otherwise test solutions were applied at 10 ppm.

[3] = 10 ppm test solution, 0 = no control relative to controls

Structure (SMILES) | Test E rating (% disease control) (Zymoseptoria tritici) [%] | Test D rating (% disease control) (Stagonospora nodorum) [%] | Test F rating (% disease control) [1] [%] | Test B rating (% disease control) (Botrytis cinerea) [%] | Test G rating (% disease control) [2] [%] | Test E disease control rating (Zymoseptoria tritici; [3]) [%] | Test D disease control rating (Stagonospora nodorum; [3]) [%] | Test F disease control rating [1, 3] [%] | Test B disease control rating (Botrytis cinerea; [3]) [%] | Test G disease control rating [2, 3] [%]
CC(C)(C)C(O)(Cn1cncn1)C1=NOC(Cn2ccc(C(F)(F)F)n2)C1 (single isomer, unassigned) [Compound 49] | 0 | 82 | 99 | 11 | 99 | – | – | – | – | –
CC(C)(C)C(O)(Cn1cncn1)C1=NOC(COc2ccc(-n3cccn3)cc2)C1 (single isomer, unassigned) [Compound 28] | 0 | 39 | 0 | 24 | 99 | – | – | – | – | –
CC(C)(C)C(O)(Cn1cncn1)C1=NOC(Cn2cc(Br)cn2)C1 (single isomer, unassigned) [Compound 42] | 0 | 42 | 9 | 0 | 0 | – | – | – | – | –
CSc1ccc(C2CC(C(O)(Cn3cncn3)c3ccc(Cl)cc3)=NO2)cc1 (single isomer, unassigned) [Compound 108] | 25 | 0 | 78 | 0 | 64 | – | – | – | – | –
OC(Cn1cncn1)(C1=NOC(c2ccc(Oc3ccccc3)cc2)C1)c1ccc(Cl)cc1 (single isomer, unassigned) [Compound 142] | 91 | 86 | 100 | 0 | 99 | – | – | – | – | –
OC(Cn1cncn1)(C1=NOC(Cn2cc(Br)cn2)C1)c1ccc(Cl)cc1 (single isomer, unassigned) [Compound 37] | 0 | 0 | 94 | 0 | 99 | – | – | – | – | –
Cn1nc(C(F)(F)F)cc1OCC1CC(C(O)(Cn2cncn2)C(C)(C)C)=NO1 (single isomer, unassigned) [Compound 56] | 0 | 20 | 97 | 0 | 94 | – | – | – | – | –
OC(Cn1cncn1)(C1=NOC(c2ccc(Cl)cc2)C1)c1cccc(Oc2ccccc2)c1 (single isomer, unassigned) [Compound 110] | 72 | 0 | 21 | 0 | 48 | – | – | – | – | –
OC(Cn1cncn1)(C1=NOC(c2ccc(F)cc2)C1)c1ccc(Cl)cc1 (single isomer, unassigned) [Compound 159] | 0 | 0 | 0 | 0 | 97 | – | – | – | – | –
CC(C)(C)C(O)(Cn1cncn1)C1=NOC(CCc2ccc(Cl)cc2)C1 (single isomer, unassigned) [Compound 15] | 19 | 100 | 100 | 100 | 100 | – | – | – | – | –
OC(Cn1cncn1)(C1=NOC(COc2ccccc2)C1)c1ccc(Cl)cc1 (single isomer, unassigned) [Compound 144] | 17 | 99 | 100 | 0 | 99 | – | – | – | – | –
CC(C)(C)C(O)(Cn1cncn1)C1=NOC(CSc2ccc(Cl)cc2)C1 (single isomer, unassigned) [Compound 26] | 0 | 70 | 74 | 92 | 89 | – | – | – | – | –
CC(C)(C)C(O)(Cn1cncn1)C1=NOC(COc2cccc(Br)c2)C1 (single isomer, unassigned) [Compound 232] | – | – | – | – | – | 41 | 99 | 100 | 98 | 100
OC(Cn1cncn1)(C1=NOC(Cc2ccc(F)cc2)C1)c1ccc(Cl)cc1 (single isomer, unassigned) [Compound 200] | 16 | 11 | 99 | 0 | 99 | – | – | – | – | –
CCC(C)(C)C(O)(Cn1cncn1)C1=NOC(COc2ccc(Br)cc2)C1 (single isomer, unassigned) [Compound 11] | 88 | 100 | 100 | 81 | 99 | – | – | – | – | –
OC(Cn1cncn1)(C1=NOC(Cc2ccccc2)C1)c1ccc(Cl)cc1 (single isomer, unassigned) [Compound 137] | 26 | 77 | 99 | 0 | 99 | – | – | – | – | –
OC(Cn1cncn1)(C1=NOC(c2ccc(Cl)cc2)C1)c1ccccc1F (single isomer, unassigned) [Compound 134] | 31 | 100 | 99 | 0 | 98 | – | – | – | – | –
OC(Cn1cncn1)(C1=NOC(COC2CCCCC2)C1)c1ccc(Cl)cc1 (single isomer, unassigned) [Compound 90] | 0 | 59 | 0 | 0 | 64 | – | – | – | – | –
OC(Cn1cncn1)(C1=NOC(c2ccc(C(F)(F)F)cc2)C1)c1ccc(Cl)cc1 (single isomer, unassigned) [Compound 147] | 17 | 73 | 100 | 0 | 90 | – | – | – | – | –
CC(C)(C)C(O)(Cn1cncn1)C1=NOC(COc2ccc(Cl)cc2)C1 (stereo not drawn) [Compound 174, α-[5-[(4-chlorophenoxy)methyl]-4,5-dihydro-3-isoxazolyl]-α-(1,1-dimethylethyl)-1H-1,2,4-triazole-1-ethanol] | 12 | 100 | 100 | 58 | 100 | – | – | – | – | –
CC#CC(O)(Cn1cncn1)C1=NOC(c2ccc(Cl)cc2)C1 (stereo not drawn) [Compound 104, α-[5-(4-chlorophenyl)-4,5-dihydro-3-isoxazolyl]-α-1-propyn-1-yl-1H-1,2,4-triazole-1-ethanol] | 0 | 100 | 97 | 0 | 93 | – | – | – | – | –
OC(Cn1cncn1)(C1=NOC(c2ccc(Cl)cc2)C1)c1ccccc1Cl (single isomer, unassigned) [Compound 151] | 76 | 0 | 84 | 0 | 90 | – | – | – | – | –
CC(C)(C)C(O)(Cn1cncn1)C1=NOC(COc2ccc(Br)cc2)C1 (single isomer, unassigned) [Compound 182] | 96 | 99 | 100 | 99 | 100 | – | – | – | – | –
